Source: patent publication US10426388B2, “Prediction of tumor recurrence by measuring oxygen saturation” (THE GENERAL HOSPITAL CORPORATION, priority 2014, dated 2019)
“And” between values parts separate entries of the source, which are not always exact repeats. Identical values can stand only once. “Also recorded” adds a separate entry of the source.

How the values were obtained:
tumor = assay: Tumor hypoxia/oxygenation after irinotecan detected by photoacoustic imaging; format: in vivo
[1] = Photobleaching of BPD in phantom tubes by photoacoustic imaging (fluorescence before/after PAI); format: physicochemical; settings: fluorescence at 690 nm
Method: The FDA approved photosensitizer Benzoporphryin derivative (BPD-MA) (Aveline et al., Photochemistry and Photobiology, 59(3):328-35 (1994)) with absorption peaks at […] was used for all PDT experiments. To achieve better depth of light penetration, 690 nm light was used for PDT. PAI was performed at 750 nm and 850 nm wavelength illumination to deduce StO2 from the oxygenated and deoxygenated hemoglobin signal as described by Needles et al. Needles et al., IEEE Trans Ultrason Ferroelectr Freq Control. 60(5):888-97 (2013). At these wavelengths, the absorbance of BPD is minimal (FIG. 5A). PAI was performed using pulsed nanosecond laser (10 nsec pulse width) illumination. […] Fluorescence imaging on the tubes were performed using a Maestro imaging system (CRI Inc.) with an excitation at 405 nm and emission at 690 nm.
Fluorescence imaging: Fluorescence images of two phantom tube (500 um inner diameter) containing phosphate buffered saline (PBS) and liposomal BPD were acquired using a CRi Maestro system. […] Fluorescence images at 690 nm were acquired. A custom Matlab routine was used to quantify fluorescence signals in the tubes. […] Fluorescence image of the tubes were acquired and the tubes were again irradiated with laser of the Vevo LAZR system operating at 690 nm (10 ns pulse width at 10 Hz, 44.5 mJ/cm^2 fluence). […]

subcutaneous U87 tumors [2] = assay: Longitudinal volume monitoring of subcutaneous U87 tumors after BPD-PDT; format: in vivo, mice
Description: Chen et al., Int J Radiat Oncol Biol Phys., 61(4):1216-26 (2005); Chen et al., Crit Rev Eukaryot Gene Expr., 16(4):279-305 (2006). It was postulated in previous work that at 1-hr the PS localizes to both cellular and vascular compartments of the tumor while at 3-hrs, most of the PS is extra vascular and primarily cellular therefore less likely to impact the tumor oxygenation status. Iinuma et al., Cancer Research, 59(24):6164-70 (1999). […] Amongst the mice that underwent PDT with 1-hr DLI, there was no regrowth for ˜two weeks and at that point 35% of the mice started to show recurrence and an increase in tumor volume (FIG. 6, dashed line), while 65% mice had no palpable tumor 30 days post therapy (FIG. 6, solid line). To test if PAI could monitor the changes in StO2 in the tumor due to PDT, The inventors designated the 1-hr DLI group with a sustained absence of palpable tumors up to 30 days post treatment (FIG. 6, triangles joined by solid line) as the “PDT responding group” and the mice in the 3-hr DLI group (FIG. 6, squares joined by solid line) were considered the “PDT non-responding group”.
(§1) Animal Model: All animal experiments were approved by the Subcommittee on Research Animal Care of Massachusetts General Hospital. Female athymic Swiss nude mice (Cox, Cambridge, Mass.), 8-10 weeks old, were anesthetized with isoflurane USP (Baxter, Deerfield, Ill.) and inoculated subcutaneously with 3×10^6 U87 cells in 300 μL, of Matrigel (BD Bioscience, San Jose, Calif.). Tumor volumes were measured using calipers by two researchers separately. Tumor volume was calculated using the formula; π/6×Length×Width×Height and photographs of the tumors were obtained.
(§2) PDT Treatment: Mice were injected intravenously with 0.5 mg/kg of BPD-MA, then PDT was performed as follows. Mice were placed under the laser light source and covered with black cloth except tumor area. 1 or 3-hrs post injection, mice were irradiated with 100 J/cm^2 using a 690 nm laser diode source (Model 7401; Intense, North Brunswick, N.J.) at a fluence rate of 100 mW/cm^2 as measured via a VEGA laser power energy meter (Ophir Laser Measurement Group, LLC).

subcutaneous U87 tumors [3] = assay: Photoacoustic imaging of tumor StO2 and HbT before and after BPD-PDT; format: in vivo, mice
Method: StO2 and HbT content were measured in both the 1-hr DLI responding group and 3-hr DLI (nonresponders) group of mice (n=6 per group) at 4 time points (before PDT (Pre-PDT), immediately post-PDT, 6-hrs and 24-hrs post-PDT) to determine if PAI could predict treatment response. FIG. 7A and FIG. 7B show representative images of the change in StO2 and HbT content at various time points in a responding and non-responding tumor respectively. Ultrasound imaging identified region of interest (green ROI in FIGS. 7A and 7B is the tumor region). FIG. 7C and FIG. 7D represent the average of StO2 values and HbT values in the tumor ROI from ˜350 B-scans per mouse (6 mice in each group, ˜55-75 B-scans per 3D tumor volume). […] This phenomena is in agreement with the studies by Wang et al. and is attributed to cell death and a decrease in the metabolic consumption of oxygen in the tumor area. Wang et al., Cancer Research, 64(20):7553-61 (2004).
as §1, §2
Ultrasound and Photoacoustic Imaging: Image acquisition and quantitation was performed using the ultrasound and photoacoustic imaging system (Vevo LAZR, FUJIFILM VisualSonics, Inc.). Light generated from a tunable laser operating at either 750 nm or 850 nm was delivered through fiber optic bundles integrated into a linear array transducer (LZ-250, 21 MHz). The Oxy-Hemo feature of the Vevo LAZR software was used to acquire the oxygen-saturation images. Mice were imaged under isoflurane. Physiological status (ECG, respiration, and body temperature) of the mice was closely monitored during image acquisition sessions. 3D ultrasound and photoacoustic images were acquired at a step size of 0.152 mm. The Vevo LAZR workstation software was utilized to mark the tumor region of interest and obtain the StO2 and HbT values for every B-scan. The workstation allowed export of the raw data. The raw data is processed using customized MATLAB routines and integrated with 3D visualization software AMIRA to obtain the prediction maps.

subcutaneous U87 tumors [4] = assay: Validation of tumor hypoxia with pimonidazole/CD31 immunofluorescence after BPD-PDT; format: in vivo, mice; settings: 1-hr DLI (responding group) compared with 3-hr DLI (non-responding) group
Description: The inventors next validated the hypoxic conditions observed in photoacoustic images with pimonidazole stain for hypoxia. Gerling et al., Theranostics, 4(6):604-13 (2014). Tumors were sectioned in a similar orientation as the imaging cross-section. CD31 stain was utilized to depict the tumor vasculature while pimonidazole stained the hypoxic regions. In the 1-hr DLI group (FIGS. 8A-4D), Immunofluorescence (IF) images show hypoxia adjacent to the vasculature depicted by the CD31 stain. The hypoxia is due to the vascular damage caused by PDT and disruption of the blood flow in these vessels. Zoomed images of the H&E stain of the adjacent cross section show vascular congestions. […] It is also to be noted that the fluorescence of the pimonidazole stain is stronger in the 1-hr DLI (responding group) tumor than in the 3-hr DLI (non-responding) group given the severe hypoxic conditions created by PDT.
Immunohistochemistry: An overview of the immunofluorescence staining protocol used in this study is published previously by the inventors. […] The slides were washed in PBS and secondary antibody (Donkey Anti-Goat IgG NL493 Affinity Purified PAb (R&D systems Inc) was applied for 2-hrs at room temperature. Finally the slides were washed and sealed with coverslip. A whole slide scanning fluorescence imaging system (Hamamatsu NanoZoomer 2.0-RS) at 40× magnification was used to image the slides.

[5] = responding 1-hr DLI group, 6-hrs post-PDT
[6] = responding 1-hr DLI group, 24-hrs post-PDT

CCc1c2c(nc3ccc(OC(=O)N4CCC(N5CCCCC5)CC4)cc13)-c1cc3c(c(=O)n1C2)COC(=O)[C@]3(O)CC [irinotecan]
tumor oxygenation (tumor; after irinotecan treatment, photoacoustic imaging): increases tumor oxygenation
levels of hypoxia (tumor; from 1 to 24 hours after treatment): steadily increasingly decrease

benzoporphyrin derivative monoacid ring-A [BPD]
BPD fluorescence after PAI (photobleaching) ([1]; PAI at 690 nm): significant decrease in the fluorescence; also recorded: reduced fluorescence
BPD fluorescence signal after PAI compared to pre-imaging value ([1]; PAI at 750 nm followed by 850 nm pulsed laser irradiation): no significant difference; also recorded: no significant change
mice showing recurrence (local tumor recurrence) (subcutaneous U87 tumors [2]; 1-hr DLI PDT): ~35%
time without regrowth (subcutaneous U87 tumors [2]; 1-hr DLI PDT): two weeks
mice with no palpable tumor (subcutaneous U87 tumors [2]; 1-hr DLI PDT, 30 days post therapy): 65%
increase in tumor volume (subcutaneous U87 tumors [2]; 3-hr DLI group, three weeks following PDT, 0.5 mg/kg BPD, 100 J/cm^2): approximately six-fold
tumor volume difference versus no-treatment group (subcutaneous U87 tumors [2]; 3-hr DLI group, p>0.05, Students t-test): no significant difference
HbT value versus pre-PDT value (subcutaneous U87 tumors [3]; 1-hr DLI group, 6-hrs post-PDT): significantly higher
StO2 immediately post-PDT versus pre-PDT (subcutaneous U87 tumors [3]; 1-hr DLI group, p<0.001): increase in oxygenation
HbT signal at 6-hrs and 24-hrs post-PDT (subcutaneous U87 tumors [3]; 3-hr DLI group): no statistical difference
StO2 24-hrs post-PDT versus pre-PDT (subcutaneous U87 tumors [3]; 3-hr DLI group): No statistically significant difference
StO2 immediately post-PDT versus pre-PDT (subcutaneous U87 tumors [3]; 3-hr DLI group): no statistically significant difference
change in StO2 compared to pre-PDT StO2 value (subcutaneous U87 tumors [3]; 3-hr DLI group, 6-hrs post-PDT): ~18%
StO2 (subcutaneous U87 tumors [3]; non-responding 3-hr DLI group, 6-hrs post-PDT): 47.6%±13.4%
StO2 (subcutaneous U87 tumors [3]; non-responding 3-hr DLI group, 24-hrs post-PDT): 55.3%±11.6%
StO2 (subcutaneous U87 tumors [3]; [5]): 2.97±1.6% and 2.9%±1.6%
decrease in StO2 relative to Pre-PDT value (subcutaneous U87 tumors [3]; [5]): ~95% and ~94.3%
StO2 (subcutaneous U87 tumors [3]; [6]): 8.03%±4.13%
decrease in StO2 relative to pre-PDT value (subcutaneous U87 tumors [3]; [6]): ~85% and ~84.8%
fluorescence of the pimonidazole stain (hypoxia), 1-hr DLI tumor versus 3-hr DLI tumor (subcutaneous U87 tumors [4]): stronger
